PubChem BioAssay (NCI)
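Cultured in 96-well plates, cells were exposed to test compound for 48 hours across five concentrations. At the GI50, growth is halved. Definition used: TGI = concentration required for complete inhibition of growth.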

Columns and labels:
Assay in all cases: DTP human tumour cell line panel, 48 h
BT-549 breast = system: BT-549 breast
CAKI-1 renal = system: CAKI-1 renal
EKVX NSCLC = system: EKVX NSCLC
HOP-92 NSCLC = system: HOP-92 NSCLC
K-562 leukemia = system: K-562 leukemia
PC-3 prostate = system: PC-3 prostate
RXF 393 renal = system: RXF 393 renal
SK-OV-3 ovarian = system: SK-OV-3 ovarian
HCT-116 colon = system: HCT-116 colon
SNB-75 CNS = system: SNB-75 CNS

Compound	GI50 (BT-549 breast)	TGI (BT-549 breast)	GI50 (CAKI-1 renal)	TGI (CAKI-1 renal)	GI50 (EKVX NSCLC)	TGI (EKVX NSCLC)	GI50 (HOP-92 NSCLC)	TGI (HOP-92 NSCLC)	GI50 (K-562 leukemia)	TGI (K-562 leukemia)	GI50 (PC-3 prostate)	TGI (PC-3 prostate)	GI50 (RXF 393 renal)	TGI (RXF 393 renal)	GI50 (SK-OV-3 ovarian)	TGI (SK-OV-3 ovarian)	TGI (HCT-116 colon)	TGI (SNB-75 CNS)	GI50 (HCT-116 colon)	GI50 (SNB-75 CNS)
COc1cc(/C=C/c2cc(/C=C/c3ccc(O)c(OC)c3)n(C(=O)Nc3ccc(F)c(Cl)c3)n2)ccc1O	0.921 µM	7.98 µM	0.35 µM	4.92 µM	1.22 µM	6.98 µM	1.03 µM	5.89 µM	0.288 µM	1.45 µM	0.365 µM	6.58 µM	0.249 µM	0.828 µM	0.324 µM	1.43 µM				
NCC1Nc2ccccc2[C@@H](O)C1O (stereo not given in full)				> 100 µM		> 100 µM		> 100 µM		> 100 µM		> 100 µM		> 100 µM		> 100 µM	> 100 µM	> 100 µM		
Cc1cc(C(=O)Nc2ncc(Cc3cccc(C(F)(F)F)c3)s2)c2ccccc2n1	3.61 µM	> 100 µM	2.13 µM	> 100 µM	2.9 µM	> 100 µM	2.56 µM	> 100 µM	0.0458 µM	> 100 µM	2.31 µM	> 100 µM			4.24 µM	> 100 µM	> 100 µM		1.29 µM	
Clc1ccc(C2=Nn3c(COc4ccccc4Cl)nnc3SC2)c(Cl)c1	18.8 µM	54.2 µM	25.9 µM	76.7 µM	23.7 µM	80.8 µM	39 µM	> 100 µM			37.2 µM	> 100 µM	28.6 µM	> 100 µM	28.1 µM	86.3 µM	27.9 µM		14.7 µM	
OC[C@H]1CCCC1O (stereo not given in full)		> 100 µM		> 100 µM				> 100 µM		> 100 µM		> 100 µM		> 100 µM			> 100 µM	> 100 µM		
CCCCCCCC/C=C/CCCCCCCC(=O)OC[C@H]1O[C@@H](n2ccc(N)nc2=O)C(F)(F)[C@@H]1O		> 60.6 µM	< 0.0135 µM	3.59 µM			0.141 µM	34.7 µM	0.307 µM	> 100 µM	0.752 µM	> 100 µM	0.0675 µM	> 49.2 µM	0.272 µM	> 100 µM	> 100 µM	> 66.1 µM	< 0.018 µM	0.36 µM
NP(=O)(Oc1c2occc2cc2ccc(=O)oc12)N(CCCl)CCCl (stereo not given)		> 100 µM		> 100 µM		> 100 µM		> 100 µM		> 100 µM		> 100 µM		> 100 µM			> 100 µM			
COc1ccc(Cn2cc3c(c2-c2ccccc2)CC(C)(C)c2cnoc2-3)cc1			1.22 µM	> 100 µM	1.99 µM	> 100 µM	1.96 µM	32.7 µM	0.377 µM	> 100 µM	3.27 µM	> 100 µM	2.45 µM	> 100 µM	4.09 µM	> 100 µM	> 100 µM	6.15 µM	1.47 µM	1.63 µM
COC1(OC)C2(Cl)C(Cl)=C(Cl)C1(Cl)C1C=CC=CC12 (stereo not given)				> 100 µM		> 100 µM		> 100 µM		> 100 µM				> 100 µM		> 100 µM	> 100 µM	> 100 µM		
O=C1OC(C(O)CO)C(=O)C1=O (stereo not given)	4320 µM	> 10000 µM	3220 µM	9630 µM			2060 µM	4230 µM	2860 µM	9080 µM	4410 µM	> 10000 µM	1700 µM	3210 µM	2910 µM	7200 µM	6520 µM	> 10000 µM	2460 µM	6160 µM
COC(=O)C1=C(C)N(NC(=O)OC(C)(C)C)C(=O)C1=P(c1ccccc1)(c1ccccc1)c1ccccc1				> 100 µM		> 100 µM		> 100 µM		> 100 µM				> 100 µM		> 100 µM	> 100 µM	> 100 µM		
CC(C)(C)c1ccc2c(c1)S(=O)(=O)Nc1ccccc1NS(=O)(=O)c1cc(C(C)(C)C)ccc1OCCOCCOCCO2				> 100 µM		> 100 µM		> 100 µM		> 100 µM				> 100 µM		> 100 µM	> 100 µM	> 100 µM		
COc1cc2ncnc(Nc3ccc(C)c(O)c3)c2cc1OC	12.4 µM	> 25 µM	1.99 µM	> 17.5 µM	6.3 µM	> 25 µM			7.19 µM	> 25 µM	> 19.8 µM	> 25 µM	5.48 µM	19.2 µM	1.32 µM	> 19.9 µM	> 25 µM	> 24 µM	> 25 µM	4.9 µM
COc1ccc(/C=C/c2ccnc3ccccc23)c(OC)c1		> 10 µM		> 10 µM		> 10 µM				> 10 µM		> 10 µM		> 10 µM		> 10 µM	> 10 µM	> 10 µM		
CC(C)n1nc(-c2cc3cc(O)ccc3[nH]2)c2c(N)ncnc21	0.147 µM	1.85 µM	0.262 µM	1.77 µM			0.0344 µM	0.483 µM	0.579 µM	36.1 µM	0.086 µM	6.45 µM	0.121 µM	0.661 µM	0.14 µM	0.754 µM	14.4 µM	0.502 µM	0.634 µM	0.0377 µM
CC1CC[C@]2(C(=O)O)CCC3(C)C(=CC(=O)C4[C@@]5(C)CCC(=O)C(C)(C)C5CC[C@]43C)[C@@H]2[C@H]1C (stereo not given in full)				> 100 µM		> 100 µM		73.2 µM		> 100 µM				49.4 µM		> 100 µM	43 µM	> 100 µM		
CCCCC(O)(c1ccc(Cl)cc1)C(CN1CCOCC1)c1ccc(Cl)cc1 (stereo not given)	15.7 µM	31 µM	14.6 µM	32.6 µM			10.6 µM	23.6 µM	12.2 µM	41.1 µM	7.68 µM	23.9 µM	8.15 µM	22.8 µM	15.2 µM	47.1 µM	20.3 µM	44.7 µM	5.23 µM	16.8 µM
Cc1cccc(N2CCN(C(=S)c3ccc4c(c3)OCO4)CC2)c1			0.485 µM	> 100 µM	7.12 µM	> 100 µM	24.6 µM	> 100 µM	0.521 µM	> 100 µM	4.14 µM	> 100 µM	1.14 µM	5.82 µM	2.19 µM	83.3 µM	> 100 µM	6.85 µM	0.513 µM	0.8 µM
Cc1ccc(C(=O)CN(/C=C/C(=O)C(F)(F)F)c2ccc(S(N)(=O)=O)cc2)cc1	58.9 µM	> 100 µM	93 µM	> 100 µM	55.2 µM	> 100 µM	99.7 µM	> 100 µM	39.3 µM	> 100 µM	59.8 µM	> 100 µM	> 100 µM	> 100 µM	> 100 µM	> 100 µM	> 100 µM		41.9 µM	
CCOC(=O)C1=C(C)N(NC(=O)Nc2ccccc2)C(=O)C1=P(c1ccccc1)(c1ccccc1)c1ccccc1				> 100 µM		> 100 µM		> 100 µM		> 100 µM				72.5 µM		> 100 µM	> 100 µM	> 100 µM		
Clc1nc(Cl)c(Cl)c(-c2ccccc2)n1		7.81 µM				30.7 µM						39.3 µM		26.6 µM		25.8 µM		21.5 µM		
CC(C)C(Nc1c2ccccc2nc2ccccc12)C(=O)O (stereo not given)				> 100 µM		> 100 µM		> 100 µM		> 100 µM				> 100 µM		> 100 µM	> 100 µM	> 100 µM		
CN1C(=O)c2cccc3cc([N+](=O)[O-])cc(c23)C1=O		> 10 µM		> 10 µM				> 10 µM		> 10 µM		> 10 µM				> 10 µM	> 10 µM	> 10 µM		
COc1cc(C=C2C(=O)NC(=O)NC2=O)cc(OC)c1OC				> 100 µM		> 100 µM		> 100 µM		> 100 µM				> 100 µM		> 100 µM	> 100 µM	> 100 µM		
COc1ccccc1CNCCCN1C(=O)c2ccc3c4c(ccc(c24)C1=O)C(=O)N(CCCOCCCCOCCCN)C3=O			1.83 µM	5.13 µM	1.19 µM	2.52 µM	2.1 µM	4.61 µM			1.45 µM	5.17 µM	0.771 µM	2.2 µM	2.35 µM	5.76 µM		3.6 µM		1.79 µM
O=C(N/N=C/c1ccc(Cl)cc1)c1ccc(C(F)(F)F)nc1Nc1cccc(C(F)(F)F)c1	2.72 µM	11.7 µM	2.37 µM	9.88 µM	1.97 µM	14.1 µM	0.347 µM	2.71 µM	3.15 µM	> 35.9 µM	2.05 µM	8.03 µM			1.85 µM	7.54 µM	10.9 µM	13.4 µM	2.6 µM	2.72 µM
CCOC(=O)CC1(C(=O)OCC)c2[nH]c3ccccc3c2CCN1Cc1ccccc1 (stereo not given)				99.2 µM		50.8 µM		32.2 µM		> 100 µM				32.7 µM		> 100 µM	31.8 µM	45.8 µM		
